For the assay, the target named is benzodiazepine modulatory unit of the GABAA receptor complex (3H-flunitrazepam binding, cerebral cortex membranes). The assay can be described thus: In vitro inhibition of 3H-flunitrazepam (3H-FNM) binding. The following applies: inhibition of specific 3H-FNM (1 nM) binding, cerebral cortex membranes from male Wistar rats, 40 min at 2° C. Also noted: species or system rat. How it is done:
In Vitro Inhibition of ^3H-Flunitrazepam (^3H-FNM) Binding
The GABA recognition site and the benzodiazepine modulatory unit can selectively be labelled with ^3H-flunitrazepam.
Preparations are performed at 0-4° C. unless otherwise indicated. Cerebral cortex from male Wistar rats (150-200 g) is homogenised for 5-10 sec in 20 ml Tris-HCl (30 mM, pH 7.4) using an Ultra-Turrax homogeniser. The suspension is centrifuged at 27,000×g for 15 min and the pellet is washed three times with buffer (centrifuged at 27,000×g for 10 min). The washed pellet is homogenized in 20 ml of buffer and incubated on a water bath (37° C.) for 30 min to remove endogenous GABA and then centrifuged for 10 min at 27,000×g. The pellet is then homogenized in buffer and centrifuged for 10 min at 27,000×g. The final pellet is resuspended in 30 ml buffer and the preparation is frozen and stored at −20° C.
The membrane preparation is thawed and centrifuged at 2° C. for 10 min at 27,000×g. The pellet is washed twice with 20 ml 50 mM Tris-citrate, pH 7.1 using an Ultra-Turrax homogeniser and centrifuged for 10 min at 27,000×g. The final pellet is resuspended in 50 mM Tris-citrate, pH 7.1 (500 ml buffer per g of original tissue), and then used for binding assays. Aliquots of 0.5 ml tissue are added to 25 μl of test solution and 25 μl of ^3H-FNM (1 nM, final concentration), mixed and incubated for 40 min at 2° C. Non-specific binding is determined using Clonazepam (1 μM, final concentration). After incubation the samples are added 5 ml of ice-cold buffer and poured directly onto Whatman GF/C glass fibre filters under suction and immediately washed with 5 ml ice-cold buffer. The amount of radioactivity on the filters is determined by conventional liquid scintillation counting. Specific binding is total binding minus non-specific binding.
The test value will be given as IC50 (the concentration (μM) of the test substance which inhibits the specific binding of ^3H-FNM by 50%).
Co is specific binding in control assays, and
Cx is the specific binding in the test assay.
(The calculations assume normal mass-action kinetics).
Take `CC(C)(O)c1ccc2c(c1)ncn2-c1ccnc(-c2cccnc2Cl)c1` [Compound 7b, 2-[1-(2′-Chloro-[2,3′]bipyridinyl-4-yl)-1H-benzoimidazol-5-yl]-propan-2-ol]: the IC50 was determined as 38 nM. Compound `CC(C)(O)c1ccc2c(c1)ncn2-c1ccnc(-c2ccncc2F)c1` [Compound 7c, 2-[1-(3′-Fluoro-[2,4′]bipyridinyl-4-yl)-1H-benzoimidazol-5-yl]-propan-2-ol] yielded an IC50 of 7.5 nM. Then `COc1ncccc1-c1cc(-n2cnc3cc(C(C)(C)O)ccc32)ccn1` [Compound 7a, 2-[1-(2′-Methoxy-[2,3′]bipyridinyl-4-yl)-1H-benzoimidazol-5-yl]-propan-2-ol], with 1.2 nM; and `CC(C)(O)c1ccc2c(c1)ncn2-c1ccnc(-c2ccncc2C#N)c1` [Compound 7d, 4-[5-(1-Hydroxy-1-methyl-ethyl)-benzoimidazol-1-yl]-[2,4′]bipyridinyl-3′-carbonitrile], with 26 nM.

Usually IC50 stands for the concentration that gives 50% inhibition.

The record behind these values is US8492408B2, “Benzimidazole derivatives and their use for modulating the GABAA receptor complex” (Aniona APS, priority 2008, dated 2013).
